The subject of assay [1] is JTAg cells. Kind of assay: Phospho-flow cytometry of ZAP-70. As to conditions: […] µM, 30 min pre-incubation, C305 stimulation 2 min, vs DMSO. For orientation: A flow cytometer gives signals particle by particle.
Assay [2] deals with double-positive (DP) thymocytes. Kind of assay: Nur77 expression. As to conditions: […] µM, […] at 37°C, thymocytes from Nur77GFP mice; DMSO MFI=604.
For assay [3] the test system is unchanged. Kind of assay: CD69 surface expression on mouse thymocytes. As to conditions: […] µM, […] at 37°C, thymocytes from Nur77GFP mice; DMSO MFI=381.
The next assay relates to mice. Kind of assay: Passive systemic anaphylaxis. As to conditions: PEP+/+ mice, 8b (20 µM) IP 1 h before DNP-HSA i.v., vs untreated groups. Format: in vivo, mouse.
The subject of assay [4] is BMMC. Kind of assay: NF-AT luciferase reporter gene analysis in BMMC. In kind it is cell-based, mouse.
Assay [5] has as its system JTAg cells. Kind of assay: CD69 surface expression on JTAg cells. As to conditions: […] µM, 4.5 hours at 37°C, resting JTAg cells; DMSO MFI=451.
Assay [6] has as its system BMMC. Kind of assay: Mast cell degranulation.
Another assay deals with T1, LYP (Homo sapiens, UniProt Q9Y2R2).
T1 sequence (Q9Y2R2 1-303): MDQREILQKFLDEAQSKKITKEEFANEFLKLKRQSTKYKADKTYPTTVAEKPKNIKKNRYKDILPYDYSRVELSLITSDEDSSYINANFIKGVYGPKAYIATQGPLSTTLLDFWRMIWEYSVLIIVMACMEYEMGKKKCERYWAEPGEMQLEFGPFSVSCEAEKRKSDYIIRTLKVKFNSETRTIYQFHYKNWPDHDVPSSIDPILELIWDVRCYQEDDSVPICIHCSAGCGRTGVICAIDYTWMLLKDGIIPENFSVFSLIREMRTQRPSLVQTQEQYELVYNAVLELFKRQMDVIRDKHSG
Format: biochemical.

Each structure is given as a SMILES string.

Here are results for three molecules from paper PMC3711248 (Journal of medicinal chemistry, 2013).

Turning to `O=C(COc1ccc(-c2oc3cc(O)c(C(=O)O)cc3c2C#Cc2cccc(Cl)c2)cc1)NC1CC1` [Compound 8b, 3-((3-Chlorophenyl)ethynyl)-2-(4-(2-(cyclopropylamino)-2-oxoethoxy)phenyl)-6-hydroxybenzofuran-5-carboxylic Acid], the “basal and TCR-stimulated phosphorylation of ZAP-70 on Tyr319” value in the assay with JTAg cells [1] was “increased”. Besides, the “Nur77 expression by GFP cell fluorescence, MFI” value in assay [2] is 1120. Moreover, the “CD69 expression, MFI” value in assay [3] was 758. Moreover, the “susceptibility to passive systemic anaphylaxis (change in body temperature)” value with mice is reported as “less susceptible to PSA”. In addition, in the assay on BMMC [4] (PEP+/+ BMMC, C28 5 µM, 8b 5 and 20 µM for 1 h, DNP-HSA 8 h), the “basal and antigen-mediated NF-AT luciferase activity” value is listed as “dose dependent down-regulation”. Further, the “residual NF-AT activity” value in the assay with BMMC [4] (PEP−/− BMMC) was “No significant effect”. For the same molecule, the “CD69 expression, median fluorescence intensity (MFI)” value in the assay with JTAg cells [5] came out at 616. Also, in the assay on BMMC [6] (PEP+/+ BMMC, C28 5 µM, 8b 5 and 20 µM for 1 h, DNP-HSA 200 ng/ml), the “antigen-stimulated degranulation (release of β-hexosaminidase)” value was “down-regulated”. Besides, the residual degranulation entry with BMMC [6] (PEP−/− BMMC) is “Neither compunds affected residual degranulation”.

Regarding `O=C(O)c1cc2c(C#Cc3cccc(Cl)c3)c(-c3ccccc3)oc2cc1O` [Compound 4c], at LYP, the “improvement of LYP inhibitory potency compared to Core 1” value was found to be 50 fold.

Turning to `O=C(O)c1cc2c(C#Cc3ccc(Oc4ccccc4)cc3)c(-c3ccccc3)oc2cc1O` [Compound 4i], the “improvement of LYP inhibitory potency compared to Core 1” value on LYP turned out to be 50 fold.
